The record followed here is patent EP2753335B1, “AN ANTHRACYCLINE FOR THE TREATMENT OF SEPSIS” (Instituto de Medicina Molecular, priority 2011, dated 2013).

Where a name gives a salt, the structure may show the parent alone. Read-outs that look alike come from different tables or passages of the source.

The test system of one test is TNF. The test is described as follows: In vitro chemical screen (Spectrum collection): TNF secretion by E. coli challenged THP-1 cells, DAS-ELISA. The test is classed as cell-based, human. On the procedure: (§1) We identified 45 leading candidates (Figure 1A and Table I) that inhibited both cytokines.
(§2) THP-1 human monocytes (American Tissue Culture Collection-ATCC TIB-202) were plated in 96 well plates at 10^6 cell/ml and incubated with each one of ∼2320 compounds included in the Spectrum collection (Microsource Discovery Systems, Gaylordsville, CT) at 10µM for 1 hour. Cells were then challenged with 4% PFA-fixed DH5α E.coli at a Multiplicity of Infection (MOI) of 20 bacterial cells per THP-1 cell for an additional 24 hours. The cell supernatants were collected and IL-1β and TNF cytokines quantified by DAS-ELISA, using Human IL-1β/IL-1F2 DuoSet® and Human TNF DuoSet® (R&D Systems ®), respectively, according to company's protocol.
(§3) We generated a working subset of The RNAi Consortium (TRC) shRNA lentiviral vector library ^33,33 that allows for the silencing of most of the genes that are either human kinases or phosphatases. This subset was composed of 1440 individually arrayed lentiviral shRNA vectors targeting ∼700 genes, after selecting the most efficient shRNAs (two on average) based on available silencing efficiency data from the Broad Institute of MIT and Harvard. THP-1 cells were plated in 96 well plates at 10^6 cell/ml and infected with shRNA-expressing lentivirus. 48 hrs later infected cells were selected with puromycin. After the 3 days of selection, plates were duplicated. One of the plates was used to measure the cell number using Alamar Blue® cell viability assay (Invitrogeia®), according to manufacturer's instructions. In the other plate, cells were stimulated with 4% PFA-fixed DH5α E.coli at a Multiplicity of Infection (MOI) of 20 bacterial cells per THP-1 cell. Twenty-four hours after stimulation, cell supernatants were collected and IL-1β and TNF cytokines quantified by DAS-ELISA. All data values from IL-1β and TNF secretion assays were normalized by dividing the amount of IL-1β and TNF in the conditioned media 24, 12, 8, 6, 4 or 2 hrs after E. coli stimulation by the number of cells in each well and then by the average concentration per cell of the plate. Results were logarithmic natural transformed. Scores were sorted in ascending order and graphed. We calculated 1.5 SDEVs above and below the mean to identify the genes that changed IL-1β and TNF secretion when silenced. The same approach was used to identify the compounds that changed IL-1β and TNF secretion. The selected genes were submitted to two or more rounds of phenotypic validation.

The test system of the next test is IL-1β. The test is described as follows: In vitro chemical screen (Spectrum collection): IL-1β secretion by E. coli challenged THP-1 cells, DAS-ELISA. In kind it is cell-based, human. On the procedure: as §1, §2, §3
Where [1] appears, read: THP-1 cells, 10µM compound for 1 hour, then PFA-fixed E. coli (MOI 20) for 24 hours.

On to `CCOc1ccc2nc3cc(N)ccc3c(N)c2c1` [Ethacridine lactate], for which the “Z score TNFa” value in the test on TNF (setting [1]) is on record as -2,218841761. For the same compound, the “Z score IL1b” value in the test with IL-1β (setting [1]) is reported as -1,389229184.
The like results for Colistin sulfate were, in that order, -3,457325884 and -0,918619053.
The like results for `COC1=CC(=O)C(O)=C/C1=C\C=C\c1ccccc1` [Obtusaquinone] were, in that order, -3,829374842 and -1,532189516.
The like results for `O=C1C=CC(=O)c2ccccc21` [1,4-naphthoquinone] were, in that order, -2,77797604 and -1,349015947.
Consider `CCCCC(=O)O[C@]1(C(=O)CO)CC[C@H]2[C@@H]3CCC4=CC(=O)CC[C@]4(C)[C@H]3[C@@H](O)C[C@@]21C` [Hydrocortisone valerate], for which the “Z score TNFa” value with TNF (setting [1]) is reported as -2,794271243. Moreover, the “Z score IL1b” value in the test on IL-1β (setting [1]) was -2,722889618.
The like results for `S=C=NCc1ccccc1` [Benzyl isothiocyanate] were, in that order, -2,908582737 and -1,034306584.
As for `CC(C)=CC1C(C(=O)OCc2cccc(Oc3ccccc3)c2)C1(C)C` (centres unmarked) [Phenothrin], the “Z score TNFa” value in the test on TNF (setting [1]) is recorded as -2,810792588. Also, the “Z score IL1b” value in the test on IL-1β (setting [1]) is -0,983918754.
Regarding `COc1cc2oc3cc(OC)c(OC)c(CC=C(C)C)c3c(=O)c2c(OC)c1CC=C(C)C` [Mangostin trimethyl ether], the “Z score TNFa” value in the test with TNF (setting [1]) is recorded as -3,162805301. In addition, the “Z score IL1b” value with IL-1β (setting [1]) is -1,634164354.
The like results for `CC[C@@]1(O)C[C@H](O[C@H]2C[C@H](N(C)C)[C@H](O)[C@H](C)O2)c2c(cc3c(c2O)C(=O)c2c(O)cccc2C3=O)[C@H]1C(=O)OC` [Aklavine hydrochloride] were, in that order, -3,511681732 and -1,408917561.
Consider `O=C1C=C2C(=CCOC2O)O1` (centres unmarked) [Patulin], for which the “Z score TNFa” value with TNF is listed as -2,874616362. For the same compound, in the test on IL-1β, the “Z score IL1b” value is given as -0,902703858.
In the case of `C[C@H]1CC[C@]2(NC1)O[C@H]1C[C@H]3[C@@H]4CC[C@H]5C[C@@H](O[C@@H]6O[C@H](CO)[C@H](O[C@@H]7O[C@H](CO)[C@@H](O)[C@H](O[C@@H]8OC[C@@H](O)[C@H](O)[C@H]8O)[C@H]7O[C@@H]7O[C@H](CO)[C@@H](O)[C@H](O)[C@H]7O)[C@H](O)[C@H]6O)CC[C@]5(C)[C@H]4CC[C@]3(C)[C@H]1[C@@H]2C` [Tomatine], in the test on TNF (setting [1]), the “Z score TNFa” value is listed as -4,440219344. The “Z score IL1b” value in the test with IL-1β (setting [1]) is -2,626087357.
Turning to `CC(C)=CCC[C@]1(C)C=Cc2c(O)c3c(c(CC=C(C)C)c2O1)O[C@]12C(=C[C@@H]4CC1C(C)(C)O[C@@]2(C/C=C(/C)C(N)=O)C4=O)C3=O` [Gambogic acid amide], in the test on TNF (setting [1]), the “Z score TNFa” value is -3,013926221. Also, in the test with IL-1β (setting [1]), the “Z score IL1b” value is listed as -1,517154207.
For `O=C1c2c(O)ccc(O)c2C(=O)c2c(NCCNCCO)ccc(NCCNCCO)c21` [Mitoxanthrone hydrochloride], the “Z score TNFa” value in the test with TNF (setting [1]) is -2,562729474. Besides, the “Z score IL1b” value with IL-1β (setting [1]) is reported as -1,158920135.
In the case of `CC[C@@]1(O)C[C@H](O[C@H]2C[C@H](N(C)C)[C@H](O)[C@H](C)O2)c2c(cc3c(c2O)C(=O)c2c(O)ccc(O)c2C3=O)[C@H]1C(=O)OC` [Pyrromycin], in the test with TNF (setting [1]), the “Z score TNFa” value is -2,980583694. In addition, the “Z score IL1b” value with IL-1β (setting [1]) is recorded as -1,456377283.
In the same order, the values of `CC(=O)OCC(=O)[C@@]1(O)[C@@H](C)C[C@H]2[C@@H]3CCC4=CC(=O)C=C[C@]4(C)[C@@]3(F)[C@@H](O)C[C@@]21C` [Betamethasone acetate] are -2,560814606 and -0,950513609.
In the same order, the values of `CC1(C)O[C@@H]2C[C@H]3[C@@H]4CCC5=CC(=O)C=C[C@]5(C)[C@H]4[C@@H](O)C[C@]3(C)[C@]2(C(=O)CO)O1` [Desonide] are -2,297715909 and -0,945977097.
